As usually defined, the Ki is a dissociation constant, usually derived from enzyme kinetics or from competition with a known ligand.

Consider one molecule from ChEMBL document CHEMBL1130020, “Synthesis and characterization of technetium-99m-labeled tropanes as dopamine transporter-imaging agents” (J Med Chem, 1997).

For the experiment, the target named is Sodium-dependent dopamine transporter (Rattus norvegicus, UniProt P23977). As to the kind of experiment: In vitro binding affinity to Dopamine transporter in rat striatal homogenates using [125I]IPT20 as the ligand.
Sodium-dependent dopamine transporter, sequence (P23977 whole entry, looked up): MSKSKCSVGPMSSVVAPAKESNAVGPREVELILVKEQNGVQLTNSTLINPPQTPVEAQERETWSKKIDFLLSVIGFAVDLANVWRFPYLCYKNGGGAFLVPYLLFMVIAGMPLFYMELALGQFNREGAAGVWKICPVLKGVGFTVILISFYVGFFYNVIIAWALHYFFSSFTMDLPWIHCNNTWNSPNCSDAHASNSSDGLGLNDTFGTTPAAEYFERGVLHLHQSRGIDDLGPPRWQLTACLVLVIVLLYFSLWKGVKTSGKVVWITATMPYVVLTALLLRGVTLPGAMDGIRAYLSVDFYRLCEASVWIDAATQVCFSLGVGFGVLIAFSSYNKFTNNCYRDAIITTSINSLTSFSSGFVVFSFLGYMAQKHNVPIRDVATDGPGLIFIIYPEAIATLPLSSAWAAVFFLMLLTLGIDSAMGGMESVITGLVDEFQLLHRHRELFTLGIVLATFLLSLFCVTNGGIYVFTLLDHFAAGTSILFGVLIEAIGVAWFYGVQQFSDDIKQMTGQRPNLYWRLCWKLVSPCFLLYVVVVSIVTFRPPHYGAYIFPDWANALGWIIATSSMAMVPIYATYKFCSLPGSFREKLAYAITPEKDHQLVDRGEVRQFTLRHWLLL

`CN1C2CCC1[C@@H](CN(CCS)CCNCCS)[C@@H](c1ccc(Cl)cc1)C2` (stereo partly specified) came in with a Ki of 7 nM.
